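Each compound was tested at five concentrations against cells in 96-well plates for 48 hours. Here, GI50 denotes the concentration required for 50% inhibition of growth.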 Activity calls are given as the source filed them. No stated cut-off is given here; in the data, active = GI50 up to about 1.1 µM and inactive = higher.
Legend:
Assay in all cases: DTP human tumour cell line panel, 48 h
[1] = tested on: NCI-H23
[2] = tested on: NCI-H460
[3] = tested on: SNB-19
[4] = tested on: MOLT-4
[5] = tested on: SK-MEL-28
[6] = tested on: OVCAR-8
[7] = tested on: SF-295
[8] = tested on: UACC-257
[9] = tested on: M19-MEL
[10] = tested on: HCT-116
[11] = tested on: SK-MEL-2
[12] = tested on: XF498
[13] = tested on: Malme-3M
[14] = tested on: OVCAR-4
[15] = tested on: IGROV-1
[16] = tested on: SF-539
[17] = tested on: HCT-15
[18] = tested on: KM12
[19] = tested on: CAKI-1
[20] = tested on: RXF 631
[21] = tested on: U-251
[22] = tested on: HOP-62
[23] = tested on: KM-20L2
[24] = tested on: SR
[25] = tested on: M14
[26] = tested on: NCI-H522
[27] = tested on: OVCAR-3
[28] = tested on: ACHN
[29] = tested on: HT-29
[30] = tested on: SK-MEL-5
[31] = tested on: LXFL 529
[32] = tested on: SW-620
[33] = tested on: COLO 205
[34] = tested on: A549
[35] = tested on: K562
[36] = tested on: CCRF-CEM
[37] = tested on: SF-268
[38] = tested on: TK-10
[39] = tested on: EKVX
[40] = tested on: UO-31
[41] = tested on: UACC-62
[42] = tested on: HL-60
[43] = tested on: DMS-114
[44] = tested on: SN12C
[45] = tested on: RXF 393
[46] = tested on: 786-0
[47] = tested on: HOP-92
[48] = tested on: RPMI-8226
[49] = tested on: SNB-75
[50] = tested on: DLD-1
[51] = tested on: HOP-18
[52] = tested on: SK-OV-3
[53] = tested on: NCI-H226
[54] = tested on: LOX IMVI
[55] = tested on: OVCAR-5
[56] = tested on: SNB-78

Measured: GI50

CC1=CC(=O)N2[C@H](OC[C@@H]2C(C)C)O1
> 100 µM: [17]
inactive: [1] > 100 µM | [2] > 100 µM | [3] > 100 µM | [4] > 100 µM | [5] > 100 µM | [6] > 100 µM | [7] > 100 µM | [8] > 100 µM | [9] > 100 µM | [10] > 100 µM | [11] > 100 µM | [12] > 100 µM | [13] > 100 µM | [14] > 100 µM | [15] > 100 µM | [16] > 100 µM | [18] > 100 µM | [19] > 100 µM | [20] > 100 µM | [21] > 100 µM | [22] > 100 µM | [23] > 100 µM | [24] > 100 µM | [25] > 100 µM | [26] > 100 µM | [27] > 100 µM | [28] > 100 µM | [29] > 100 µM | [30] > 100 µM | [31] > 100 µM | [32] > 100 µM | [33] > 100 µM | [34] > 100 µM | [35] > 100 µM | [36] > 100 µM | [37] > 100 µM | [38] > 100 µM | [39] > 10 µM | [40] > 100 µM | [41] > 100 µM | [42] > 100 µM | [43] > 100 µM | [44] > 100 µM | [45] > 100 µM | [46] > 100 µM | [47] > 100 µM | [48] > 100 µM | [49] > 100 µM | [50] > 100 µM | [51] > 100 µM | [52] > 100 µM | [53] > 100 µM

Cc1ccc(N2C(=O)/C(=C/c3ccc(N(CCC#N)CCC#N)cc3)N=C2COc2ccc(Cl)cc2Cl)cc1
> 100 µM: [17]
inactive: [1] > 100 µM | [2] > 100 µM | [54] > 100 µM | [3] > 100 µM | [4] > 100 µM | [5] > 100 µM | [6] > 100 µM | [7] > 100 µM | [8] > 100 µM | [10] > 100 µM | [11] > 100 µM | [12] > 100 µM | [55] > 100 µM | [13] > 100 µM | [14] > 100 µM | [15] > 100 µM | [16] > 100 µM | [18] > 100 µM | [19] > 100 µM | [20] > 100 µM | [21] > 100 µM | [22] > 100 µM | [23] > 100 µM | [24] > 100 µM | [25] > 100 µM | [26] > 100 µM | [27] > 100 µM | [28] > 100 µM | [56] > 100 µM | [29] > 100 µM | [30] > 100 µM | [31] > 100 µM | [32] > 100 µM | [33] > 100 µM | [34] > 100 µM | [35] > 100 µM | [36] > 100 µM | [37] > 100 µM | [38] > 100 µM | [39] > 100 µM | [40] > 100 µM | [41] > 100 µM | [42] > 100 µM | [43] > 100 µM | [44] > 100 µM | [45] > 100 µM | [46] > 100 µM | [48] > 100 µM | [49] > 100 µM | [50] > 100 µM | [51] 33.8 µM | [52] > 100 µM | [53] > 100 µM
